Results on 33 compounds are retold here after patent EP0556720B1, “5-Aminoflavone derivatives” (KYOWA HAKKO KOGYO CO., LTD., priority 1992, dated 1993).

Where a name gives a salt, the structure may show the parent alone.

The first assay has as its system HeLaS3 cells. Kind of assay: Human uterine cervix carcinoma (HeLaS3) growth inhibition test, neutral red staining. It counts as cell-based. To be noted: HeLa S3, 72 hours culture with sample, absorbance at 550 nm. On the procedure: Human uterine cervix carcinoma (HeLaS3) growth inhibition test;
Each 0.1 ml of HeLaS3 cells which had been prepared to 3 x 10^4/ml using a medium (referred to as Medium A hereinafter) consisted of MEM medium, 2 mM glutamine and 10% bovine fetal serum was distributed in each well of 96 well-microtiter plate. The plate was cultured at 37 °C for 20 hours in a CO2 gas incubator, each 0.05 ml of samples (test compounds) which had been appropriately diluted with Medium A was added thereto and the mixture was cultured at 37 °C for 72 hours in a CO2 gas incubator. Supernatant was removed, each 0.1 ml of Medium A containing 0.02% neutral red was added to the residue, the mixture was cultured at 37 °C for 1 hour in a CO2 gas incubator and the cells were stained. Supernatant was removed and the residue was washed once with saline. Then, the pigment was extracted with 0.001N hydrochloric acid/30% ethanol and the absorbance at 550 nm was measured with a microplatereader.
Take `Nc1ccc(-c2cc(=O)c3c(N)ccc(Cl)c3o2)cc1` [Compound 2, 5-Amino-2-(4-aminophenyl)-8-chloro-4H-1-benzopyran-4-one]: the IC50 stood at 3.2 µM.
In turn, `Nc1ccc(-c2cc(=O)c3c(N)c(Cl)cc(Cl)c3o2)cc1` [Compound 3, 5-Amino-2-(4-aminophenyl)-6,8-dichloro-4H-1-benzopyran-4-one] registered an IC50 of 33 µM.
With `Nc1ccc(-c2cc(=O)c3c(N)ccc(Br)c3o2)cc1` [Compound 5, 5-Amino-2-(4-aminophenyl)-8-bromo-4H-1-benzopyran-4-one], the IC50 was 6.1 µM.
On the same count and under the same terms, in the case of `Nc1ccc(-c2cc(=O)c3c(N)ccc(F)c3o2)cc1` [Compound 10, 5-Amino-2-(4-aminophenyl)-8-fluoro-4H-1-benzopyran-4-one] it was 21 µM; in that of `NCCCNc1ccc(-c2cc(=O)c3c(N)ccc(F)c3o2)cc1` [Compound 20, 5-Amino-2-[4-[(3-aminopropyl)amino]phenyl]-8-fluoro-4H-1-benzopyran-4-one], 9.3 µM.
Take `NCCCNc1ccc(-c2cc(=O)c3c(N)c(F)cc(F)c3o2)cc1F` [Compound 30, 5-Amino-2-[4-(3-aminopropylamino)-3-fluorophenyl]-6,8-difluoro-4H-1-benzopyran-4-one]: the IC50 was determined as 14 µM.
Compound `CN(C)c1ccc(-c2cc(=O)c3c(N)c(F)cc(F)c3o2)cc1F` [Compound 38, 5-Amino-6,8-difluoro-2-[4-(N,N-dimethylamino)-3-fluorophenyl]-4H-1-benzopyran-4-one] showed an IC50 of 12 µM.
In turn, `Nc1c(F)cc(F)c2oc(-c3ccc(NCCN4CCCC4)c(F)c3)cc(=O)c12` [Compound 41, 5-Amino-6,8-difluoro-2-[3-fluoro-4-[2-(pyrrolidin-1-yl)ethylamino]phenyl]-4H-1-benzopyran-4-one] had an IC50 of 5 µM.
In turn, `Nc1c(F)cc(F)c2oc(-c3ccc(NCCCCCCn4ccnc4)c(F)c3)cc(=O)c12` [Compound 52, 5-Amino-6,8-difluoro-2-[3-fluoro-4-[6-(imidazol-1-yl)hexylamino]phenyl]-4H-1-benzopyran-4-one] gave an IC50 of 4.4 µM.
The same measure, in the same setting: in the case of `Nc1c(F)cc(F)c2oc(-c3ccc(NCCCCCCN4CCOCC4)c(F)c3)cc(=O)c12` [Compound 55, 5-Amino-6,8-difluoro-2-[3-fluoro-4-(6-morpholinohexylamino)phenyl]-4H-1-benzopyran-4-one] it was 11 µM; in that of `CN(C)CCCCCCNc1c(F)cc(F)c2oc(-c3ccc(N(C)C)c(F)c3)cc(=O)c12` [Compound 62, 6,8-Difluoro-2-[4-(N,N-dimethyl)amino-3-fluorophenyl]-5-[6-(N',N'-dimethylamino)hexylamino]-4H-1-benzopyran-4-one], 7.1 µM; in that of `CN(C)c1ccc(-c2cc(=O)c3c(NCCCCCCN4CCCC4)c(F)cc(F)c3o2)cc1F` [Compound 63, 6,8-Difluoro-2-[4-(N,N-dimethyl)amino-3-fluorophenyl]-5-[6-(pyrrolidin-1-yl)hexylamino]-4H-1-benzopyran-4-one], 7 µM.
Still for that read-out and setting: then `CN(C)c1ccc(-c2cc(=O)c3c(NCCCCCCn4ccnc4)c(F)cc(F)c3o2)cc1F` [Compound 64, 6,8-Difluoro-2-[4-(N,N-dimethyl)amino-3-fluorophenyl]-5-[6-(imidazol-1-yl)hexylamino]-4H-1-benzopyran-4-one], with 3 µM; and `CN(C)c1ccc(-c2cc(=O)c3c(NCCCCCCN)c(F)cc(F)c3o2)cc1F` [Compound 65, 5-(6-Aminohexylamino)-6,8-difluoro-2-[4-(N,N-dimethyl)amino-3-fluorophenyl]-4H-1-benzopyran-4-one], with 7 µM; and `CCCCCCNc1c(F)cc(F)c2oc(-c3ccc(N)c(F)c3)cc(=O)c12` [Compound 67, 2-(4-Amino-3-fluorophenyl)-6,8-difluoro-5-hexylamino-4H-1-benzopyran-4-one], with 9.4 µM.
As for `CC(C)CCCNc1c(F)cc(F)c2oc(-c3ccc(N)c(F)c3)cc(=O)c12` [Compound 71, 2-(4-Amino-3-fluorophenyl)-6,8-difluoro-5-(4-methylpentylamino)-4H-1-benzopyran-4-one], the IC50 turned out to be 12 µM.
Still for that read-out and setting: then `CCCCCCNc1c(F)cc(F)c2oc(-c3ccc(NCC(=O)O)c(F)c3)cc(=O)c12` [Compound 75, 2-(4-Carboxymethylamino-3-fluorophenyl)-6,8-difluoro-5-hexylamino-4H-1-benzopyran-4-one], with 16 µM; and `C=CCCCCNc1c(F)cc(F)c2oc(-c3ccc(NC)c(F)c3)cc(=O)c12` [Compound 77, 6,8-Difluoro-2-(3-fluoro-4-methylaminophenyl)-5-(5-hexenylamino)-4H-1-benzopyran-4-one], with 11 µM.
Same read-out and setting: then `CCCCCNc1c(F)cc(F)c2oc(-c3ccc(NCCCN)c(F)c3)cc(=O)c12` [Compound 79, 2-[4-(3-Aminopropylamino)-3-fluorophenyl]-6,8-difluoro-5-pentylamino-4H-1-benzopyran-4-one], with 7.5 µM.

In the next assay the test system is MCF-7 cells. The assay can be described thus: Human mammary cancer (MCF-7) growth inhibition test, neutral red staining. It counts as cell-based. Particulars: MCF7, medium with 10^-8M estradiol, 72 hours culture with sample. How it is done: Human mammary cancer (MCF-7) growth inhibition test;
Each 0.1 ml of MCF-7 cells which had been prepared to 5 x 10^4/ml using a medium (referred to as Medium B hereinafter) prepared by adding 10% bovine fetal serum, 10^-8M estradiol (manufactured by Sigma), 100 units/ml penicillin and 100 µg/ml streptomycin to medium RPMI1640 was distributed in each well of 96 well-microtiter plate. The plate was cultured at 37 °C for 20 hours in a CO2 gas incubator, each 0.05 ml of samples (test compounds) which had been appropriately diluted with Medium B was added thereto and the mixture was cultured at 37 °C for 72 hours in a CO2 gas incubator. Supernatant was removed, each 0.1 ml of Medium B containing 0.02% neutral red was added to the residue, the mixture was cultured at 37 °C for 1 hour in a CO2 gas incubator and the cells were stained. IC50 was calculated according to the same manner as that in Test 2.
In the case of `Nc1ccc(-c2cc(=O)c3c(N)ccc(Cl)c3o2)cc1` [Compound 2, 5-Amino-2-(4-aminophenyl)-8-chloro-4H-1-benzopyran-4-one], inhibition was half-maximal at 0.37 µM (IC50).
On the same count and under the same terms, then `Nc1ccc(-c2cc(=O)c3c(N)c(Cl)cc(Cl)c3o2)cc1` [Compound 3, 5-Amino-2-(4-aminophenyl)-6,8-dichloro-4H-1-benzopyran-4-one], with 22 µM; and `Nc1ccc(-c2cc(=O)c3c(N)c(Br)cc(Br)c3o2)cc1` [Compound 6, 5-Amino-2-(4-aminophenyl)-6,8-dibromo-4H-1-benzopyran-4-one], with 27 µM.
`Nc1ccc(-c2cc(=O)c3c(N)c(F)ccc3o2)cc1` [Compound 8, 5-Amino-2-(4-aminophenyl)-6-fluoro-4H-1-benzopyran-4-one] came in with an IC50 of 0.14 µM.
For the compound `Nc1ccc(-c2cc(=O)c3c(N)ccc(F)c3o2)cc1` [Compound 10, 5-Amino-2-(4-aminophenyl)-8-fluoro-4H-1-benzopyran-4-one], the IC50 was 0.25 µM.
Still for that read-out and setting: in the case of `NCCCNc1ccc(-c2cc(=O)c3c(N)ccc(F)c3o2)cc1` [Compound 20, 5-Amino-2-[4-[(3-aminopropyl)amino]phenyl]-8-fluoro-4H-1-benzopyran-4-one] it was 0.094 µM; in that of `NCCCNc1ccc(-c2cc(=O)c3c(N)c(F)cc(F)c3o2)cc1F` [Compound 30, 5-Amino-2-[4-(3-aminopropylamino)-3-fluorophenyl]-6,8-difluoro-4H-1-benzopyran-4-one], 0.039 µM.
Still for that read-out and setting: then `Nc1c(Cl)cc(-c2cc(=O)c3c(N)c(F)cc(F)c3o2)cc1Cl` [Compound 35, 5-Amino-2-(4-amino-3,5-dichlorophenyl)-6,8-difluoro-4H-1-benzopyran-4-one], with 0.17 µM; and `Nc1c(Br)cc(-c2cc(=O)c3c(N)c(F)cc(F)c3o2)cc1Br` [Compound 36, 5-Amino-2-(4-amino-3,5-dibromophenyl)-6,8-difluoro-4H-1-benzopyran-4-one], with 0.61 µM.
Still for that read-out and setting: then `CN(C)CCNc1ccc(-c2cc(=O)c3c(N)c(F)cc(F)c3o2)cc1F` [Compound 40, 5-Amino-2-[4-[2-(N',N'-dimethylamino)ethylamino]-3-fluorophenyl]-6,8-difluoro-4H-1-benzopyran-4-one], with 0.23 µM.
Compound `Nc1c(F)cc(F)c2oc(-c3ccc(NCCN4CCOCC4)c(F)c3)cc(=O)c12` [Compound 42, 5-Amino-6,8-difluoro-2-[3-fluoro-4-(2-morpholinoethylamino)phenyl]-4H-1-benzopyran-4-one] gave an IC50 of 6.1 µM.
Still for that read-out and setting: then `CCOC(=O)CNc1ccc(-c2cc(=O)c3c(N)c(F)cc(F)c3o2)cc1F` [Compound 44, 5-Amino-6,8-difluoro-2-(4-ethyoxycarbonylmethylamino-3-fluorophenyl)-4H-1-benzopyran-4-one], with 0.36 µM.
On the same count and under the same terms, in the case of `COCCCNc1ccc(-c2cc(=O)c3c(N)c(F)cc(F)c3o2)cc1F` [Compound 46, 5-Amino-6,8-difluoro-2-[3-fluoro-4-(3-methoxypropylamino)phenyl]-4H-1-benzopyran-4-one] it was 0.11 µM; in that of `Nc1c(F)cc(F)c2oc(-c3ccc(NCCCCCCn4ccnc4)c(F)c3)cc(=O)c12` [Compound 52, 5-Amino-6,8-difluoro-2-[3-fluoro-4-[6-(imidazol-1-yl)hexylamino]phenyl]-4H-1-benzopyran-4-one], 2 µM; in that of `CCOC(=O)CCCCCNc1ccc(-c2cc(=O)c3c(N)c(F)cc(F)c3o2)cc1F` [Compound 56, 5-Amino-6,8-difluoro-2-[4-(5-ethoxycarbonylpentylamino)-3-fluorophenyl]-4H-1-benzopyran-4-one], 0.91 µM.
On the same count and under the same terms, then `Nc1c(F)cc(F)c2oc(-c3ccc(NCCCCCC(=O)O)c(F)c3)cc(=O)c12` [Compound 57, Sodium salt of 5-amino-2-[4-(5-carboxypentylamino)-3-fluorophenyl]-6,8-difluoro-4H-1-benzopyran-4-one], with 0.73 µM.
`CCCCCCNc1c(F)cc(F)c2oc(-c3ccc(N(C)C)c(F)c3)cc(=O)c12` [Compound 58, 6,8-Difluoro-2-[4-(N,N-dimethyl)amino-3-fluorophenyl]-5-hexylamino-4H-1-benzopyran-4-one] showed an IC50 of 0.34 µM.
Still for that read-out and setting: in the case of `CN(C)c1ccc(-c2cc(=O)c3c(NCCCCCCO)c(F)cc(F)c3o2)cc1F` [Compound 60, 6,8-Difluoro-2-[4-(N,N-dimethyl)amino-3-fluorophenyl]-5-(6-hydroxyhexylamino)-4H-l-benzopyran-4-one] it was 0.34 µM; in that of `COCCCCCCNc1c(F)cc(F)c2oc(-c3ccc(N(C)C)c(F)c3)cc(=O)c12` [Compound 61, 6,8-Difluoro-2-[4-(N,N-dimethyl)amino-3-fluorophenyl]-5-(6-methoxyhexylamino)-4H-1-benzopyran-4-one], 0.63 µM; in that of `CC(Cl)CCCCNc1c(F)cc(F)c2oc(-c3ccc(N)c(F)c3)cc(=O)c12` (stereo not drawn) [Compound 69, 2-(4-Amino-3-fluorophenyl)-5-(5-chlorohexylamino)-6,8-difluoro-4H-1-benzopyran-4-one], 6 µM.

The term IC50 denotes the point on the concentration scale where inhibition reaches its midpoint. A high value points to weaker potency in that assay.
